ChEMBL document CHEMBL1201862, “PubChem BioAssay data set” (2004)
Calls of active or inactive are those of the source.

How the values were obtained:
[1] = target: T1, Sphingosine 1-phosphate receptor 2 (Homo sapiens, UniProt O95136); assay: Dose Response Cell Based Assay for Antagonists of the S1P2 Receptor. [Related pubchem assays: 856, 736 ]; type: functional
[2] = target: T1, Sphingosine 1-phosphate receptor 2; assay: Dose Response Cell Based Assay for Agonists of the S1P2 Receptor. [Related pubchem assays: 729, 736, 843 ]; type: functional
[3] = Luminescent dose response cell-based high throughput screening assay for inhibitors of the Janus kinase 2 mutant JAK2V617F. [Related pubchem assays: 1446 (Primary screen.), 1521 (Confirmation assay.), 1486 (Counter screen.)]; type: functional
[4] = Luminescence Cell-Based Dose Confirmation HTS to Identify Activators of 5'UTR Stem-Loop Driven Alpha-Synuclein mRNA Translation in H4 Neuroglioblastoma Cells. [Related pubchem assays: 1829 (Project Summary), 1814 (Primary HTS)]; type: functional
[5] = Luminescence Cell-Based Dose Response HTS to Identify Activators of Luciferase Translation or Activity in H4 […] Cells. [Related pubchem assays: 1829 (Project Summary), 1814 (Primary HTS)]; type: functional
H4 = assay: Luminescence Cell-Based Dose Response HTS to Identify Activators of 5'UTR Stem-Loop Driven Prion Protein mRNA Translation in H4 Neuroglioblastoma Cells. [Related pubchem assays: 1829 (Project Summary), 1814 (Primary HTS)]; type: functional; details: Homo sapiens
[6] = target: Protein-tyrosine kinase 2-beta (Homo sapiens, UniProt Q14289);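 note: potency of inhibitors of PYK2 kinase phosphorylation of poly-GT substrate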
Protein-tyrosine kinase 2-beta, sequence (Q14289 whole entry): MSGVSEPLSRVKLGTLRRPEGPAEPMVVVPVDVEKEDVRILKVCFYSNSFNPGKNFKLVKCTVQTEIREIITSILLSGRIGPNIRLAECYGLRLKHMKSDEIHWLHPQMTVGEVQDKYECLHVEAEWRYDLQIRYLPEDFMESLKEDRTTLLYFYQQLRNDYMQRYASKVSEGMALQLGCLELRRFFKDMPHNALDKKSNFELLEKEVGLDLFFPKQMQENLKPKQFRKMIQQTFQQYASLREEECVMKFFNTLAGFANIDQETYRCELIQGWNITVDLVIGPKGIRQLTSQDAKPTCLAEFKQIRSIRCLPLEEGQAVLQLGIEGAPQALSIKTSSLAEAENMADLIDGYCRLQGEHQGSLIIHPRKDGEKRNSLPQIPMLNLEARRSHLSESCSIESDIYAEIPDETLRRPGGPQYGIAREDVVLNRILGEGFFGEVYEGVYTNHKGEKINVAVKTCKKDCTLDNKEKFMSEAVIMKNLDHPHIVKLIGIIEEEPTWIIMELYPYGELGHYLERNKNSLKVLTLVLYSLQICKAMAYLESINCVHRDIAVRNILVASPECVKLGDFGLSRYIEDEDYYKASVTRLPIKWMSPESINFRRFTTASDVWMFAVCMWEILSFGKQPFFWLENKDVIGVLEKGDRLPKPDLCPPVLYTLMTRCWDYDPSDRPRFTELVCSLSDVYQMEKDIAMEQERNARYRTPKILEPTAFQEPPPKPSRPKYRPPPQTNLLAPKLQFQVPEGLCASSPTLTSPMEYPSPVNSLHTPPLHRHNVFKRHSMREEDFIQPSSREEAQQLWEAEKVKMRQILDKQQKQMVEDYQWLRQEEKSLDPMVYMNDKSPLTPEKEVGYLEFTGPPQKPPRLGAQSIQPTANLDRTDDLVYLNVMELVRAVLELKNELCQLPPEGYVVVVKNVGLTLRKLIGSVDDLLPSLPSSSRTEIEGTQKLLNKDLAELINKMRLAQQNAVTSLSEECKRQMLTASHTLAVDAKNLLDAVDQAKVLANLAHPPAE

[7] = Dose-response inhibition of insulin secretion in a rat insulinoma line at 5 mM glucose (AID 1117331); type: functional, cell-based; details: INS-1E
[8] = half-maximal inhibitory concentration for glucagon-like peptide-1 release, STC-1 cell line, dose-response (AID 1117345); type: functional, cell-based
[9] = Glucagon-like peptide 1 release potency, NCI-H716 cell line, dose-response, half-maximal inhibitory concentration (AID 1117344); type: functional, cell-based
[10] = target: T2, RNA-binding protein pos-1 (Caenorhabditis elegans, UniProt G5EF15); assay: inhibitors of POS-1/mex-3 RNA binding, dose response, biochemical, fluorescence polarization (AID 1964);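 note: purified POS-1 fused to maltose binding protein made in E. coli; potency of compounds blocking POS-1 binding to fluorescent RNA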
T2 sequence (G5EF15 whole entry): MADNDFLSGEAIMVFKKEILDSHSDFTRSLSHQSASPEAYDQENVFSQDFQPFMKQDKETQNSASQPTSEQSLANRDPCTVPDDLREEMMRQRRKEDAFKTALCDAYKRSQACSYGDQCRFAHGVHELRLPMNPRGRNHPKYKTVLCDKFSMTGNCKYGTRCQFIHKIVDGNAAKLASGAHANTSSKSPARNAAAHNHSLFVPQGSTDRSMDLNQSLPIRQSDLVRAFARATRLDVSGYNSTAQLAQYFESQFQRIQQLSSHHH

[11] = target: T3, Zinc finger protein mex-5 (Caenorhabditis elegans, UniProt Q9XUB2); assay: MEX-5/TCR-2 RNA interaction inhibitors, dose response, biochemical, C. elegans, fluorescence polarization (AID 1960)
T3 sequence (Q9XUB2 whole entry): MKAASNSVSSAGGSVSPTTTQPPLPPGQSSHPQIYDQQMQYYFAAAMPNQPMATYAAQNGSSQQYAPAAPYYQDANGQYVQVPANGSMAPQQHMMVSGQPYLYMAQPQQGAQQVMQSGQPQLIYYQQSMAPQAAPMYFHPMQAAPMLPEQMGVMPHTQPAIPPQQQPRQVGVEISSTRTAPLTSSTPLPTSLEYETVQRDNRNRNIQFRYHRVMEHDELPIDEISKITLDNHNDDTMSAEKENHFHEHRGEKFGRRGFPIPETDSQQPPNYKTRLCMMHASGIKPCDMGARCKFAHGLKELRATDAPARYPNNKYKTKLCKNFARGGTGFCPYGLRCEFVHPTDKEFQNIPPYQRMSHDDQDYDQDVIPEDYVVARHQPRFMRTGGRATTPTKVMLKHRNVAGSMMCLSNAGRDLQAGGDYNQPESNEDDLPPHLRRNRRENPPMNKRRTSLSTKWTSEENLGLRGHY

Large T antigen = Large T antigen (Simian virus 40, UniProt P03070); type: functional, Betapolyomavirus macacae;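 note: Confirmatory-stage PubChem screen for compounds that inhibit SV40 T antigen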
Large T antigen, sequence (P03070 whole entry): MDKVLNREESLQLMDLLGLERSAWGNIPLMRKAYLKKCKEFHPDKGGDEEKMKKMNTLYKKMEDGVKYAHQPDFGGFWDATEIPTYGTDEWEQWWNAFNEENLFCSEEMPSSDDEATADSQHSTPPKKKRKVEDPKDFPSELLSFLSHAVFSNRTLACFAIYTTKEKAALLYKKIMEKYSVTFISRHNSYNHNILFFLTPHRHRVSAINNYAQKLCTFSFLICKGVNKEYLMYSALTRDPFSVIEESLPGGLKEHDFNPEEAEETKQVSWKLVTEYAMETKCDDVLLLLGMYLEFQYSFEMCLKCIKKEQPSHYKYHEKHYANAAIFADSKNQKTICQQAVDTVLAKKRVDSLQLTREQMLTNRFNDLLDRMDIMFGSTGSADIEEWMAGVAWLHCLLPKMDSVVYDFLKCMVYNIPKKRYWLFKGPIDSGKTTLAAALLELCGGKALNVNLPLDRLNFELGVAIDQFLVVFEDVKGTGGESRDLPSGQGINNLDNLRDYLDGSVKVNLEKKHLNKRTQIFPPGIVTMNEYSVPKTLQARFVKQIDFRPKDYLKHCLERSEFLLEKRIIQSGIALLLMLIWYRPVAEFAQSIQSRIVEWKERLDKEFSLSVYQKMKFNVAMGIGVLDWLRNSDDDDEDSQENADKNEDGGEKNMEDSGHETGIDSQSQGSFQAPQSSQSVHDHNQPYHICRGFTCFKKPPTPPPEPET

[12] = NIH-3T3 fibroblast cytotoxicity, dose response, cytotoxicity control, cell-based, fluorescence, Alamar Blue, secondary assay (AID 2327); type: functional;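 note: NIH-3T3 mouse fibroblasts cultured with fluconazole at 8 µg/mL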
[13] = system: Streptococcus sp. 'group A'; assay: growth inhibition of control SK(-) GAS strain, dose response, counter-screen for streptokinase expression inhibitor project, luminescence, kanamycin, BacTiterGlo, confirmation (AID 1900); type: functional, organism-based
BJ [14] = assay: cytotoxicity toward BJ-TERT fibroblasts, dose response, cell-based, RAS-independent, luminescence (AID 1933); type: functional; details: Homo sapiens
Streptokinase A = target: T4, Streptokinase A (Streptococcus pyogenes serotype M1, UniProt P10520); assay: S. pyogenes streptokinase expression inhibitors, potency, dose response, plasminogen activation absorbance, OD405 (AID 1914); type: functional, Streptococcus pyogenes M1 GAS;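 note: secreted streptokinase activity via plasminogen activation per viability signal from cell pellet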
T4 sequence (P10520 whole entry): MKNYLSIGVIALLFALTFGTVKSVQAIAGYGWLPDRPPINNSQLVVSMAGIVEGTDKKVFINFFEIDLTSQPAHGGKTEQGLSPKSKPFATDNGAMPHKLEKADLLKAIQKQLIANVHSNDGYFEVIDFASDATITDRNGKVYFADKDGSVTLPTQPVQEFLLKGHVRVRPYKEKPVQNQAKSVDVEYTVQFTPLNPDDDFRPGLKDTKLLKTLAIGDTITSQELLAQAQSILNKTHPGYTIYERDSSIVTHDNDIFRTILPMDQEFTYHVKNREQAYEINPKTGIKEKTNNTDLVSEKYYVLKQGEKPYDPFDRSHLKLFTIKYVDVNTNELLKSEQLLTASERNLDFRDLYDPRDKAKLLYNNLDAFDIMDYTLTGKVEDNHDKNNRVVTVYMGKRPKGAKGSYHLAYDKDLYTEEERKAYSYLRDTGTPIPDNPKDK

BJ [15] = assay: cells; type: functional, cell-based; details: Homo sapiens
[16] = C. albicans growth with fluconazole, confirmation, fluorescence, retest (AID 2467); type: functional, cell-based
[17] = growth suppression of PTEN-null colon cells, dose response, cell-based, HCT116 PTEN knockout (AID 1047); type: functional;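 note: HCT116 colon tumor cells with PTEN knocked out; cells exposed to compound for 60 hours before readout; potency for loss of cell viability measured by luminescence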
[18] = growth suppression of beta-catenin-knockout colon cells, dose response, cell-based, HCT116, human colon tumor (AID 1045); type: functional;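 note: HCT116 colon tumor cells with beta catenin knocked out; cells exposed to compound for 60 hours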
BJ [19] = assay: cytotoxicity toward BJ-TERT-LT-ST fibroblasts, dose response, cell-based, RAS-independent, luminescence (AID 1935); type: functional; details: Homo sapiens;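 note: BJ fibroblasts immortalized with TERT plus LT and ST oncogenes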
[20] = cytotoxicity toward DRD oncogenic fibroblasts, dose response, cell-based, non-viral oncogenic, luminescence (AID 1934); type: functional; details: Homo sapiens
Streptococcus = assay: Group A Streptococcus viability loss, dose response, counter-screen for streptokinase expression inhibitor project, luminescence, BacTiterGlo (AID 1915); type: functional, organism-based;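 note: potency for reduction of bacterial viability or growth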
[21] = target: Eukaryotic translation initiation factor 4E (Mus musculus, UniProt P63073); assay: eIF4E–eIF4G protein interaction inhibitors, dose response, biochemical, TR-FRET (AID 855); type: functional;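 note: potency for disrupting eIF4E binding to eIF4GI seen as loss of FRET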
Eukaryotic translation initiation factor 4E, sequence (P63073 whole entry): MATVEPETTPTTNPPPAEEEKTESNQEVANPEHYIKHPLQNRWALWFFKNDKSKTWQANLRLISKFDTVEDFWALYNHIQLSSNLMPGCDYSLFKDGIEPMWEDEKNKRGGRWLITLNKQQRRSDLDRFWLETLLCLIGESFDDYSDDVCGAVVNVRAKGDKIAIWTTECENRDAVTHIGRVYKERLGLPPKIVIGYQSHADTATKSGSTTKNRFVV

[22] = cytotoxicity in HEK-293T cells, dose response, cytotoxicity control for TCR NF-kB inhibitor project, luminescence, T-cell screen hits (AID 489026); type: functional, cell-based;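 note: cells exposed to compound about 14 hours before the viability readout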
Nonstructural protein 1 = Nonstructural protein 1 (Influenza A virus, UniProt Q194T2); type: functional, Influenza A virus (A/California/07/2009(H1N1))
Nonstructural protein 1, sequence (Q194T2 whole entry): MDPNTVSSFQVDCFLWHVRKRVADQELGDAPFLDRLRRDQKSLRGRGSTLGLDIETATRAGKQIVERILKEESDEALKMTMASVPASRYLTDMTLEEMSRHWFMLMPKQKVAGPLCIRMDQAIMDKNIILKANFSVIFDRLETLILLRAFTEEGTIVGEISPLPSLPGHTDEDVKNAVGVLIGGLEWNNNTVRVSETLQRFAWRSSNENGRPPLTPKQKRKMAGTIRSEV

BJ [23] = assay: cytotoxicity toward Ras-transformed BJeLR fibroblasts, dose response, cell-based, alamar blue fluorescence, cherrypicked samples (AID 2631); type: functional; details: Homo sapiens;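 note: confirmatory dose-response assay in RAS-dependent BJ fibroblasts engineered with TERT, LT and ST, with cytotoxicity read by fluorescence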
[24] = HeLa cell cytotoxicity, dose response, cytotoxicity control for MgcRacGAP inhibitor project (AID 624300); type: functional
[25] = target: T5, Rac GTPase-activating protein 1 (Homo sapiens, UniProt Q9H0H5); assay: MgcRacGAP GTPase-activating activity inhibitors, confirmation, biochemical, ADP Hunter fluorescence, primary and confirmatory (AID 624330); type: functional
T5 sequence (Q9H0H5 whole entry): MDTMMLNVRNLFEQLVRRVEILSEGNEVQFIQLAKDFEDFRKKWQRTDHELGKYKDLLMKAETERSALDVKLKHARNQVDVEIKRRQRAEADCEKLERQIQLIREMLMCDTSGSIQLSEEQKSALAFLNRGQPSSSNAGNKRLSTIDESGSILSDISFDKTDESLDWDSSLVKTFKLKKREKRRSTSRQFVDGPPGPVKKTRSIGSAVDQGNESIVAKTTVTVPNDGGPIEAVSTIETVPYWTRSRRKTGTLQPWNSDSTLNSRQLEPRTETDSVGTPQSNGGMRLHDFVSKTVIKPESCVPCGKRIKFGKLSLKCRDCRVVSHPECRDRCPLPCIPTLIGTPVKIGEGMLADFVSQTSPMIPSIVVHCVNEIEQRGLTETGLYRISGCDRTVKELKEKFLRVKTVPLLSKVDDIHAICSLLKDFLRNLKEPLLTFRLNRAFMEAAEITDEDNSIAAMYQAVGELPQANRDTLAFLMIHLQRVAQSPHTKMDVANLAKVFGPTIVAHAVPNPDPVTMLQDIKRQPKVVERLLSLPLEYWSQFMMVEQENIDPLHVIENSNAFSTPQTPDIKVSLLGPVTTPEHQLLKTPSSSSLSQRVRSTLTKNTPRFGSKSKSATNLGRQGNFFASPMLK

T1 sequence (O95136 whole entry): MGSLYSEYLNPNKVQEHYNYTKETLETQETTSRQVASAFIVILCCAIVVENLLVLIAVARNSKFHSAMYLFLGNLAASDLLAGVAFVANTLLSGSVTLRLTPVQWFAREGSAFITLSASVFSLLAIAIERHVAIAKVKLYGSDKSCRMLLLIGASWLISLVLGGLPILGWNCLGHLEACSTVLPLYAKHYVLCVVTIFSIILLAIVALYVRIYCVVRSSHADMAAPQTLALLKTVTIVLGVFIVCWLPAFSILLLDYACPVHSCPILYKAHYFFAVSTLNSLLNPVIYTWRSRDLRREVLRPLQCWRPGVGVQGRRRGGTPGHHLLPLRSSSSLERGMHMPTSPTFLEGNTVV

Structure (SMILES): O=C(O)c1sc2cc(C(F)(F)F)cnc2c1-c1ccco1
- IC50 [1]: > 30 µM (not active)

Structure (SMILES): CS(=O)(=O)NCc1nnc(SCC(=O)NC2CCCCC2)n1-c1ccc(F)cc1
- EC50 [2]: > 50 µM (not active)

Structure (SMILES): Cc1nc(O)c(C(=O)/C=C/c2ccccc2F)c2c1CCCC2
- IC50 [3]: 1.52 µM (active)
- EC50 [4]: 9.92 µM (active)
- EC50 [5]: > 120 µM (not active)
- EC50 (H4): > 120 µM (not active)

Structure (SMILES): O=C(N/N=C1/C(=O)c2cccc3cccc1c23)c1ccc(Cl)cc1
- IC50 [6]: 4.31 µM (active)

Structure (SMILES): COC(=O)C(Cl)C(=O)OC
- IC50 [7]: > 33.3 µM (inactive)
- IC50 [8]: 8.37 µM (inactive)
- IC50 [9]: > 40 µM (inactive)

Structure (SMILES): Oc1ccc2ccccc2c1/C=N/c1ccc(N2CCOCC2)cc1
- EC50 [10]: > 300 µM (not active)
- EC50 [11]: > 300 µM (not active)
- IC50 (Large T antigen): 36 µM (active)
- IC50 [6]: 10.6 µM (not active)

Structure (SMILES): CCN1/C(=C/c2ccc3ccccc3[n+]2CC)C=Cc2ccccc21
- EC50 [12]: 12 µM (active)
- IC50 [1]: 3.1 µM (active)
- EC50 [13]: 4.74 µM (active)
- EC50 (BJ [14]): 1.21 µM (active)
- EC50 (Streptokinase A): > 150 µM (not active)
- EC50 (BJ [15]): 2.73 µM (active)
- EC50 [16]: 0.639 µM (active)
- EC50 [17]: 0.249 µM (active)
- EC50 [18]: 0.167 µM (active)
- EC50 (BJ [19]): 3.1 µM (inconclusive)
- EC50 [20]: 3.27 µM (active)
- EC50 (Streptococcus): 35 µM (active)
- IC50 [21]: 33.8 µM (inactive)
- IC50 [22]: 33.1 µM (inactive)
- IC50 (Nonstructural protein 1): 12.8 µM (active)
- EC50 (BJ [23]): 1.89 µM (active)
- CC50 [24]: 19 µM (active)
- IC50 [25]: 46.5 µM (active)

Structure (SMILES): Cc1ccc(O)cc1 [p-CRESOL]
- IC50 [7]: > 33.3 µM (inactive)
- IC50 [8]: > 40 µM (inactive)
- IC50 [9]: > 40 µM (inactive)
